Data: patent US10538555B2, “Macrocyclic inhibitors of the PD-1/PD-L1 and CD80(B7-1)/PD-L1 protein/protein interactions” (BRISTOL-MYERS SQUIBB COMPANY, priority 2014, dated 2020)
Where a SMILES comes first, the peptide text is derived from it. Bridges are numbered along the chain shown (N, C = ends). [ ]: non-standard residue; d: D form. Trp(1-CH2COOH) = N[C@@H](Cc1cn(CC(=O)O)c2ccccc12)C(=O)O; Morpholine(3S-CO,6,6-Me2) = CC1(C)CN[C@H](C(=O)O)CO1; Trp(2-Me) = Cc1[nH]c2ccccc2c1C[C@H](N)C(=O)O; Morpholine(3S-CO) = O=C(O)[C@@H]1COCCN1; 1Nal = N[C@@H](Cc1cccc2ccccc12)C(=O)O; Pro(4R-Me) = C[C@H]1CN[C@H](C(=O)O)C1; Hyp = O=C(O)[C@@H]1C[C@@H](O)CN1; NMeNle = CCCC[C@H](NC)C(=O)O; Pip = O=C(O)[C@@H]1CCCCN1; dPip = O=C(O)[C@H]1CCCCN1; NMeA = CN[C@@H](C)C(=O)O; Dab = NCC[C@H](N)C(=O)O; Dap = NC[C@H](N)C(=O)O

What follows are molecules tested against T1, Human PD-L1/PD-1 (Homo sapiens, UniProt Q9NZQ7) (assay: HTRF Human PD-L1/PD-1 binding assay (PD-1-Ig/PD-L1-His)). Settings: PD-L1-His 10 nM, PD-1-Ig 20 nM; class symbol; read-out: HTRF Human PD-L1/PD-1 Binding Assay IC50 Range.
T1 construct: TVMV protease cleavage site (C); made in house; host or cells: HEK293T cells
T1 sequence (Q9NZQ7 with tags, fused parts or gaps): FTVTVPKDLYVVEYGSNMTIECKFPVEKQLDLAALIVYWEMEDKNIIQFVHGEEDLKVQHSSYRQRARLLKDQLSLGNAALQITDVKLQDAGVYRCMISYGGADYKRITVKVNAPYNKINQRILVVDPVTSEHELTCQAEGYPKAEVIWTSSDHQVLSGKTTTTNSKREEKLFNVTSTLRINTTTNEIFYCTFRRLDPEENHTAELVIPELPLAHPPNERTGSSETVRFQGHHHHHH
Excerpt: Methods for Testing the Ability of Macrocyclic Peptides to Compete for the Binding of PD-1 to PD-L1 Using Homogenous Time-Resolved Fluorescence (HTRF) Binding Assays
The ability of the macrocyclic peptides of the present disclosure to bind to PD-L1 was investigated using a PD-1/PD-L1 Homogenous Time-Resolved Fluorescence (HTRF) binding assay.
Homogenous Time-Resolved Fluorescence (HTRF) Assays of Binding of Soluble PD-1 to Soluble PD-L1. Soluble PD-1 and soluble PD-L1 refers to proteins with carboxyl-end truncations that remove the transmembrane-spanning regions and are fused to heterologous sequences, specifically the Fc portion of the human immunoglobuling G sequence (Ig) or the hexahistidine epitope tag (His). All binding studies were performed in an HTRF assay buffer consisting of dPBS supplemented with 0.1% (w/v) bovine serum albumin and 0.05% (v/v) Tween-20. For the PD-1-Ig/PD-L1-His binding assay, inhibitors were pre-incubated with PD-L1-His (10 nM final) for 15 m in 4 μl of assay buffer, followed by addition of PD-1-Ig (20 nM final) in 1 μl of assay buffer and further incubation for 15 m. PD-L1 fusion proteins from either human, cynomolgus macaques, or mouse were used. HTRF detection was achieved using europium crypate-labeled anti-Ig monoclonal antibody (1 nM final) and allophycocyanin (APC) labeled anti-His monoclonal antibody (20 nM final). Antibodies were diluted in HTRF detection buffer and 5 μl was dispensed on top of binding reaction. The reaction was allowed to equilibrate for 30 minutes and signal (665 nm/620 nm ratio) was obtained using an EnVision fluorometer. Additional binding assays were established between PD-1-Ig/PD-L2-His (20 and 5 nM, respectively), CD80-His/PD-L1-Ig (100 and 10 nM, respectively) and CD80-His/CTLA4-Ig (10 and 5 nM, respectively). Competition studies between biotinylated Compound No. 71 and human PD-L1-His were performed as follows. Macrocyclic peptide inhibitors were pre-incubated with PD-L1-His (10 nM final) for 60 minutes in 4 μl of assay buffer followed by addition of biotinylated Compound No. 71 (0.5 nM final) in 1 μl of assay buffer. Binding was allowed to equilibrate for 30 minutes followed by addition of europium crypated labeled Streptavidin (2.5 pM final) and APC-labeled anti-His (20 nM final) in 5 μl of HTRF buffer. The reaction was allowed to equilibrate for 30 m and signal (665 nm/620 nm ratio) was obtained using an EnVision fluorometer.
Recombinant Proteins. Carboxyl-truncated human PD-1 (amino acids 25-167) with a C-terminal human Ig epitope tag [hPD-1 (25-167)-3S-IG] and human PD-L1 (amino acids 18-239) with a C-terminal His epitope tag [hPD-L1([…])-tobacco vein mottling virus protease cleavage site (TVMV)-His] were expressed in HEK293T cells and purified sequentially by rProteinA affinity chromatography and size exclusion chromatography.

| IC50 [nM] | SMILES |
| --- | --- |
| 1 to 9.9 | CCCC[C@H]1C(=O)N(C)[C@@H](CCCC)C(=O)N[C@@H](C)C(=O)N[C@H](C(=O)NCC(N)=O)CSCC(=O)N[C@@H](Cc2ccc(O)cc2)C(=O)N2CCNC[C@H]2C(=O)N[C@@H](CC(N)=O)C(=O)N2CCC[C@H]2C(=O)N[C@@H](Cc2cnc[nH]2)C(=O)N[C@@H](CCC(N)=O)C(=O)N2C[C@H](O)C[C@H]2C(=O)N[C@@H](Cc2c[nH]c3ccccc23)C(=O)N[C@@H](CO)C(=O)N[C@@H](Cc2c[nH]c3ccccc23)C(=O)N1C [Example 1275] |
| 10 to 99.9 | CCCC[C@H]1C(=O)N(C)[C@@H](CCCC)C(=O)N[C@@H](C)C(=O)N[C@H](C(=O)NCC(N)=O)CSCC(=O)N[C@@H](Cc2ccc(O)cc2)C(=O)N2CCCC[C@H]2C(=O)N[C@@H](CC(N)=O)C(=O)N2CCC[C@H]2C(=O)N[C@@H](Cc2cnc[nH]2)C(=O)N[C@@H](CCC(N)=O)C(=O)N2CCOC[C@H]2C(=O)N[C@@H](Cc2c[nH]c3ccccc23)C(=O)N[C@@H](CO)C(=O)N[C@@H](Cc2c[nH]c3ccccc23)C(=O)N1C [Example 1277] |
| 10 to 99.9 | CCCC[C@H]1C(=O)N(C)[C@@H](CCCC)C(=O)N[C@@H](C)C(=O)N[C@H](C(=O)NCC(N)=O)CSCC(=O)N[C@@H](Cc2ccc(O)cc2)C(=O)N(C)[C@@H](C)C(=O)N[C@@H](CC(N)=O)C(=O)N2CCC[C@H]2C(=O)N[C@@H](Cc2cnc[nH]2)C(=O)N[C@@H](CCC(N)=O)C(=O)N2CCNC[C@H]2C(=O)N[C@@H](Cc2c[nH]c3ccccc23)C(=O)N[C@@H](CO)C(=O)N[C@@H](Cc2c[nH]c3ccccc23)C(=O)N1C [Example 1278] |
| 10 to 99.9 | CCCC[C@H]1C(=O)N(C)[C@@H](CCCC)C(=O)N[C@@H](C)C(=O)N[C@H](C(=O)NCC(N)=O)CSCC(=O)N[C@@H](Cc2ccc(O)cc2)C(=O)N(C)[C@@H](C)C(=O)N[C@@H](CC(N)=O)C(=O)N2CCC[C@H]2C(=O)N[C@@H](Cc2cnc[nH]2)C(=O)N[C@@H](CCC(N)=O)C(=O)N2CCOC[C@H]2C(=O)N[C@@H](Cc2c[nH]c3ccccc23)C(=O)N[C@@H](CO)C(=O)N[C@@H](Cc2c[nH]c3ccccc23)C(=O)N1C [Example 1279] |
| 10 to 99.9 | CCCC[C@H]1C(=O)N(C)[C@@H](CCCC)C(=O)N[C@@H](C)C(=O)N[C@H](C(=O)NCC(N)=O)CSCC(=O)N[C@@H](Cc2ccc(O)cc2)C(=O)N(C)[C@@H](C)C(=O)N[C@@H](CC(N)=O)C(=O)N2CCOC[C@H]2C(=O)N[C@@H](Cc2cnc[nH]2)C(=O)N[C@@H](CCC(N)=O)C(=O)N2C[C@H](O)C[C@H]2C(=O)N[C@@H](Cc2c[nH]c3ccccc23)C(=O)N[C@@H](CO)C(=O)N[C@@H](Cc2c[nH]c3ccccc23)C(=O)N1C [Example 1280] ({CH2CO}-Y[NMeA]N[Morpholine(3S-CO)]HQ[Hyp]WSW[NMeNle][NMeNle]ACG-NH2; thioether N-14) |
| 1 to 9.9 | CCCC[C@H]1C(=O)N(C)[C@@H](CCCC)C(=O)N[C@@H](C)C(=O)N[C@H](C(=O)NCC(N)=O)CSCC(=O)N[C@@H](Cc2ccc(O)cc2)C(=O)N2CC(C)(C)OC[C@H]2C(=O)N[C@@H](CC(N)=O)C(=O)N2CCC[C@H]2C(=O)N[C@@H](CN)C(=O)N[C@@H](CCC(N)=O)C(=O)N2C[C@H](O)C[C@H]2C(=O)N[C@@H](Cc2c[nH]c3ccccc23)C(=O)N[C@@H](CO)C(=O)N[C@@H](Cc2c[nH]c3ccccc23)C(=O)N1C [Example 1281] ({CH2CO}-Y[Morpholine(3S-CO,6,6-Me2)]NP[Dap]Q[Hyp]WSW[NMeNle][NMeNle]ACG-NH2; thioether N-14) |
| 10 to 99.9 | CCCC[C@H]1C(=O)N(C)[C@@H](CCCC)C(=O)N[C@@H](CCC(=O)O)C(=O)N[C@H](C(=O)NCC(N)=O)CSCC(=O)N[C@@H](Cc2ccc(O)cc2)C(=O)N2C[C@H](O)C[C@H]2C(=O)N[C@@H](CC(N)=O)C(=O)N2CCC[C@H]2C(=O)N[C@@H](Cc2cnc[nH]2)C(=O)N[C@@H](CCC(=O)O)C(=O)N2C[C@H](O)C[C@H]2C(=O)N[C@@H](Cc2c[nH]c3ccccc23)C(=O)N[C@@H](CO)C(=O)N[C@@H](Cc2c[nH]c3ccccc23)C(=O)N1C [Example 1283] ({CH2CO}-Y[Hyp]NPHE[Hyp]WSW[NMeNle][NMeNle]ECG-NH2; thioether N-14) |
| 1 to 9.9 | CCCC[C@H]1C(=O)N(C)[C@@H](CCCC)C(=O)N[C@@H](C)C(=O)N[C@H](C(=O)NCC(N)=O)CSCC(=O)N[C@@H](Cc2ccc(O)cc2)C(=O)N(C)[C@@H](C)C(=O)N[C@@H](CC(N)=O)C(=O)N2CCC[C@H]2C(=O)N[C@@H](Cc2cnc[nH]2)C(=O)N[C@@H](CCC(N)=O)C(=O)N2C[C@H](O)C[C@H]2C(=O)N[C@@H](Cc2c[nH]c3ccccc23)C(=O)N[C@@H](CO)C(=O)N[C@@H](Cc2c(C)[nH]c3ccccc23)C(=O)N1C [Example 1285] ({CH2CO}-Y[NMeA]NPHQ[Hyp]WS[Trp(2-Me)][NMeNle][NMeNle]ACG-NH2; thioether N-14) |
| 1 to 9.9 | CCCC[C@H]1C(=O)N(C)[C@@H](CCCC)C(=O)N[C@@H](C)C(=O)N[C@H](C(=O)NCC(N)=O)CSCC(=O)N[C@@H](Cc2ccc(O)cc2)C(=O)N(C)[C@@H](C)C(=O)N[C@@H](CC(N)=O)C(=O)N2CCC[C@H]2C(=O)N[C@@H](Cc2cnc[nH]2)C(=O)N[C@@H](CCC(N)=O)C(=O)N2C[C@H](O)C[C@H]2C(=O)N[C@@H](Cc2c[nH]c3ccccc23)C(=O)N[C@@H](CO)C(=O)N[C@@H](Cc2cccc3ccccc23)C(=O)N1C [Example 1289] ({CH2CO}-Y[NMeA]NPHQ[Hyp]WS[1Nal][NMeNle][NMeNle]ACG-NH2; thioether N-14) |
| 10 to 99.9 | CCCC[C@H]1C(=O)N(C)[C@@H](CCCC)C(=O)N[C@@H](CCC(=O)O)C(=O)N[C@H](C(=O)NCC(N)=O)CSCC(=O)N[C@@H](Cc2ccc(O)cc2)C(=O)N2CCCC[C@@H]2C(=O)N[C@@H](CC(N)=O)C(=O)N2CCC[C@H]2C(=O)N[C@@H](CN)C(=O)N[C@@H](CCC(=O)O)C(=O)N2C[C@H](O)C[C@H]2C(=O)N[C@@H](Cc2c[nH]c3ccccc23)C(=O)N[C@@H](CO)C(=O)N[C@@H](Cc2cn(CC(=O)O)c3ccccc23)C(=O)N1C [Example 1290] ({CH2CO}-Y[dPip]NP[Dap]E[Hyp]WS[Trp(1-CH2COOH)][NMeNle][NMeNle]ECG-NH2; thioether N-14) |
| 1 to 9.9 | CCCC[C@H]1C(=O)N(C)[C@@H](CCCC)C(=O)N[C@@H](CN)C(=O)N[C@H](C(=O)NCC(N)=O)CSCC(=O)N[C@@H](Cc2ccc(O)cc2)C(=O)N2CCCC[C@H]2C(=O)N[C@@H](CC(N)=O)C(=O)N2CCC[C@H]2C(=O)N[C@@H](CN)C(=O)N[C@@H](CC(C)C)C(=O)N2C[C@H](C)C[C@H]2C(=O)N[C@@H](Cc2c[nH]c3ccccc23)C(=O)N[C@@H](CCN)C(=O)N[C@@H](Cc2cn(CC(=O)O)c3ccccc23)C(=O)N1C [Example 1291] ({CH2CO}-Y[Pip]NP[Dap]L[Pro(4R-Me)]W[Dab][Trp(1-CH2COOH)][NMeNle][NMeNle][Dap]CG-NH2; thioether N-14) |
| 10 to 99.9 | CCCC[C@H]1C(=O)N(C)[C@@H](CCCC)C(=O)N[C@@H](C)C(=O)N[C@H](C(=O)NCC(N)=O)CSCC(=O)N[C@@H](Cc2ccc(O)cc2)C(=O)N2CCCC[C@H]2C(=O)N[C@@H](CC(=O)O)C(=O)N2CCC[C@H]2C(=O)N[C@@H](Cc2cnc[nH]2)C(=O)N[C@@H](CCC(N)=O)C(=O)N2C[C@H](O)C[C@H]2C(=O)N[C@@H](Cc2c[nH]c3ccccc23)C(=O)N[C@@H](CO)C(=O)N[C@@H](Cc2cn(CC(=O)O)c3ccccc23)C(=O)N1C [Example 1292] ({CH2CO}-Y[Pip]DPHQ[Hyp]WS[Trp(1-CH2COOH)][NMeNle][NMeNle]ACG-NH2; thioether N-14) |

Same assay, conditions: PD-L1-His 10 nM, PD-1-Ig 20 nM; read-out: HTRF Human PD-L1/PD-1 Binding Assay IC50

| IC50 [nM] | SMILES |
| --- | --- |
| 468 | CCCC[C@H]1C(=O)N(C)[C@@H](CCCC)C(=O)N[C@@H](C)C(=O)N[C@H](C(=O)NCC(N)=O)CSCC(=O)N[C@@H](Cc2ccc(O)cc2)C(=O)N2CCCC[C@H]2C(=O)N[C@@H](CC(N)=O)C(=O)N2CCC[C@H]2C(=O)N[C@@H](Cc2cnc[nH]2)C(=O)N[C@@H](CCC(N)=O)C(=O)N2CCNC[C@H]2C(=O)N[C@@H](Cc2c[nH]c3ccccc23)C(=O)N[C@@H](CO)C(=O)N[C@@H](Cc2c[nH]c3ccccc23)C(=O)N1C [Example 1276] |
